Assays:
[1] = Liposome characterization by dynamic light scattering and zeta potential; assay type: physicochemical; conditions: liposomes of the compound alone, 1 mg/mL in Milli-Q water; for Pdi (polydispersity) of liposomes / d (diameter) of liposomes: DLS
Procedure: Zeta potential measurements and Dynamic light scattering (DLS) measurements of liposomes were performed with a MalvernNanoZS device.
100 μL of stock solutions of anionic or cationic compounds of formula (I) prepared in examples 2 and 6 (10 mg/mL in dichloromethane) were placed in glass tubes, dried under dry N2 and then desiccated under vacuum. Milli-Q Water was added to the dried lipid to obtain liposomes dispersions (1 mg/mL) after vortex agitation and sonication for 10 min.
The size distribution by intensity measured by dynamic light scattering (DLS) of liposomes prepared from compound 11 prepared in example 6 (anionic compounds of formula (I)) is shown on FIG. 3A, and of liposomes prepared from compound 6 prepared in example 2 (cationic compound of formula (I)) is shown on FIG. 3B.

[2] = 1H NMR kinetic study of orthoester hydrolysis; assay type: physicochemical; conditions: for rate of hydrolysis of the orthoester function, effect of pH: MeOD:phosphate buffer (1:2), pH 5 vs 7.4, 37° C.
Procedure: 1HNMR experiments were performed to study the kinetics of hydrolysis for both anionic and cationic compounds of formula (I) at pH 5 and 7.4 by measuring the percentage of hydrolyzed compound versus time.
10 mg of cationic compound (6) prepared in example 2 or anionic compound (11) prepared in example 6 were dissolved in a mixture of MeOD:Buffer phosphate (1:2) (pH 5 or 7.4), mixed and placed in a NMR tube. ^1H NMR Experiment was performed at 37° C. at 300 MHz on a BRUKER® Avance DPX-300.
After hydrolysis of the orthoester function, the chemical shifts of the thymidine CH3 protons are shifted upfield and downfield for compound 6 and 11, respectively. Thus, the percentage of hydrolysis versus time was followed by integrating the signals of the CH3 protons.

[3] = Small-angle X-ray scattering (SAXS) of compound 6/DOPC; assay type: physicochemical; conditions: with DOPC (mol ratio 50/50), incubation at pH=5 and 37° C.
Procedure: […] SAXS experiments were carried out at the Centre de Recherche Paul Pascal, Pessac, France on a NanoStar (Bruker). With a sample to detector distance equal to 650 mm and a radiation wavelength of A=0.154 nm, the scattering wave vectors in reciprocal space ranged from q=0.16 nm^−1 and 3.4 nm^−1.
The beam size at the sample position was 0.45 mm (0). Images were captured by the HiStar (Bruker).
The array of detection totalizes 1024×1024 pixels, each one with 100 μm for side. Data were radially averaged and corrected for background scattering by using the software SAXS-Bruker. All experiments were carried out on thermally equilibrated samples at 25° C., which was obtained by keeping the sample holders under water circulation at controlled temperature.

[4] = DLS of nucleolipid/DOPE liposomes and siRNA complexes; assay type: physicochemical; conditions: for size of siRNA complexes with siRNA RECQL4 / size of siRNA complexes with siRNA luciferase: 10 pmol siRNA + 2 nmol nucleolipid/DOPE, serum-free medium; for diameter of liposomes: nucleolipid/DOPE liposomes in water
Procedure: (§1) Compound 6 and DOPE were mixed with molar ratio and dissolved in methylene chloride. The solvent was evaporated with nitrogen flow while stirring to prepare lipids films. This preparation was rehydrated with 1 mL of water, them submitted to Vortex, and the tube was put in ultrasonic bath (37 kHz) during 15-20 min at 15° C. The same experiment was carried out with DOTAU/DOPE (1:1) Liposomes were analysed by DLS (Malvern, Zetasizer) and measured 74 nm of diameters for orthoester and 48 nm for DOTAU. 10 pmol of siRNA were added to 2 nmol of orthoester/DOPE in 100 μL of PRMI 1640 serum-free medium. After submitting to Vortex, this solution was incubated 20 min at RT and transferred in wells. The siRNA orthoester/DOPE complexes were analysed by DLS and measured at 90 nm with siRNA luciferase and at 100 nm with siRNA RECQL4 for orthoester (69 nm and 63 nm, respectively for DOTAU).

RECQL4 = experiment: Inhibition of RECQL4 by siRNA transfection, qPCR normalized with GAPDH; assay type: cell-based, human; conditions: MDA-MB-134 breast cancer cells, 72 h, nucleolipid/DOPE complexes, N/P 1/5 and 1/10
Procedure: as §1, with “RECQL4 is a human RecQ helicase implicated in three syndromes (Rothmund-Thompson, […] and Baller-Gerold) displaying accelerating aging, developmental abnormalities and cancer's predisposition. […] In this example, the efficacy of compound 6 prepared in example 2 in the transfection of siRNA targeting RECQL4 is evaluated. Compound” for “Compound”, “(1:1)” for “(1:1) Liposomes were analysed by DLS (Malvern, Zetasizer) and measured 74 nm of diameters for orthoester and 48 nm for DOTAU.”, “DOTAU). 2.10^5 MDA-MB-134 cells by well were added in 500 μL final volume. […] RNA was converted in cDNA by Reverse Transcription with QuantiTect kit (Qiagen). Then, a quantitative PCR was performed with 25 ng of cDNA, the master mix GoTaq qPCR (Promega) and specific primers (1 μM). […]” for “DOTAU).”

| SMILES | ζ (zeta potential) of liposomes [1] [mV] | Pdi (polydispersity) of liposomes [1] | d (diameter) of liposomes [1] [nm] | rate of hydrolysis of the orthoester function, effect of pH [2] | SAXS profile before and after incubation [3] | size of siRNA complexes with siRNA RECQL4 [4] [nm] | size of siRNA complexes with siRNA luciferase [4] [nm] | diameter of liposomes [4] [nm] | expression of RECQL4 after siRNA transfection (RECQL4) | rate of hydrolysis relative to cationic compound 6 ([2]; at both pH 5 and 7, 37° C.) |
| --- | --- | --- | --- | --- | --- | --- | --- | --- | --- | --- |
| CCCCCCCCCCCCCCCCOC(OCCCCCCCCCCCCCCCC)O[C@H]1C[C@H](n2cc(C)c(=O)[nH]c2=O)O[C@@H]1C[N+](C)(C)C.CS(=O)(=O)[O-] [Compound 6, 1-((2R,3S,5R)-3-(bis(hexadecyloxy)methoxy)-5-(5-methyl-2,4-dioxo-3,4-dihydropyrimidin-1 (2H)-yl)tetrahydrofuran-2-yl)-N,N,N-trimethyl-methanaminium methanesulfonate] | 51.4 | 0.221 | 135.9 | higher rates of hydrolysis at pH=5 | evolves from vesicular to multilamellar systems | 100 | 90 | 74 | able to inhibit the expression of RECQL4 | – |
| CCCCCCCCCCCCCCCCOC(OCCCCCCCCCCCCCCCC)O[C@H]1C[C@H](n2cc(C)c(=O)[nH]c2=O)O[C@@H]1COP(=O)(O)OC [Compound 11, ((2R,3S,5R)-3-(bis(hexadecyloxy)methoxy)-5-(5-methyl-2,4-dioxo-3,4-dihydropyrimidin-1(2H)-yl)tetrahydrofuran-2-yl)methyl methyl phosphate] | −43.3 | 0.163 | 100.4 | higher rates of hydrolysis at pH=5 | – | – | – | – | – | increased hydrolysis rates |
| CCCCCCCC/C=C\CCCCCCCC(=O)OC1C(C[N+](C)(C)C)OC(n2ccc(=O)[nH]c2=O)C1OC(=O)CCCCCCC/C=C\CCCCCCCC.Cc1ccc(S(=O)(=O)[O-])cc1 (stereo not drawn) [DOTAU, N-[5′-(2′,3′-dioleoyl)uridine]-N′,N′,N′-trimethylammonium tosylate, reference compound] | – | – | – | – | – | 63 | 69 | 48 | not able to transfect the siRNA targeting RECQL4 | – |
